Drawing on patent US10617680B2 (CELGENE QUANTICEL RESEARCH, INC., priority 2017, dated 2020), this text covers IC50 for 35 molecules.

Where only a bound is given, the exact number is not on record here.

CBP, sequence (Q92793 1081-1197): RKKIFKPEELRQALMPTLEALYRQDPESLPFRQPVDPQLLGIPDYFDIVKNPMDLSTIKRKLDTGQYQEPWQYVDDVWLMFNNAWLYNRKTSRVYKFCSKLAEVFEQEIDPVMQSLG

This assay concerns the target CBP (Homo sapiens (Human), UniProt Q92793). The assay can be described thus: In vitro CBP inhibition (AlphaScreen, biotinylated H4-tetraacetyl peptide). The following applies: AlphaScreen, Table 29; read-out: CBP IC50. The assay is classed as binding. The procedure: The CBP-inhibitory activity of the compounds described herein was determined by calculating the IC50. More specifically, CBP inhibitor activity was assayed as follows: CBP was cloned and expressed in E. coli as His-tag protein and purified by Nickel affinity and gel-filtration chromatography. […] CBP binding and inhibition is assessed by monitoring the interaction of biotinylated H4-tetraacetyl peptide (AnaSpec, H4K5/8/12/16(Ac), biotin-labeled) with the target using the AlphaScreen technology (Perkin Elmer). In a 384-well ProxiPlate CBP (50 nM final) was combined with peptide (20 nM final) in 50 mM HEPES (pH 7.3), 10 mM NaCl, 0.25 mM TCEP, 0.1% (w/v) BSA, and 0.005% (w/v) Brij-35 either in the presence of DMSO (final 0.4% DMSO) or compound dilution series in DMSO. After 20 min incubation at room temp, Alpha-streptavidin donor beads and Nickel Chelate acceptor beads were added to a final concentration of 5 μg/mL.
The ability of the compounds disclosed herein to inhibit CBP activity was quantified and the respective IC50 value determined.
On the technique in general: Bead proximity is the source of the signal in Alpha formats.
Broadly, the IC50 is the concentration that gives 50% inhibition. In the case of `Cn1cc(-c2cnn(-c3ccccc3C#N)c2)c(-c2ccc(C(=O)O)cc2)cc1=O` [Example 217, 4-{5-[1-(2-Cyano-phenyl)-1H-pyrazol-4-yl]-1-methyl-2-oxo-1,2-dihydro-pyridin-4-yl}-benzoic acid], the IC50 was less than 0.5 µM. For `Cn1cc(-c2cc(=O)n(C)cc2-c2cnn(-c3ccccc3C#N)c2)cn1` [Example 204, 2-{4-[1-Methyl-4-(1-methyl-1H-pyrazol-4-yl)-6-oxo-1,6-dihydro-pyridin-3-yl]-pyrazol-1-yl}-benzonitrile] the value was less than 0.5 µM; for `Cn1cc(-c2cnn(Cc3ccccc3)c2)c(N2CC[C@H](C(=O)O)C2)cc1=O` [Example 75, (S)-1-(5-(1-benzyl-1H-pyrazol-4-yl)-1-methyl-2-oxo-1,2-dihydro-pyridin-4-yl)pyrrolidine-3-carboxylic acid], less than 0.5 µM; for `CNc1ncc(-c2cc(=O)n(C)cc2-c2cnn(-c3ccccc3C#N)c2)cn1` [Example 245, 2-(4-(1-methyl-4-(2-(methylamino)pyrimidin-5-yl)-6-oxo-1,6-dihydropyridin-3-yl)-1H-pyrazol-1-yl)benzonitrile], less than 0.5 µM. For `CCn1ccc(-c2cc(=O)n(C)cc2-c2cnn(-c3cccc(C4CC4)c3C#N)c2)cc1=O` [Example 386, 2-cyclopropyl-6-[4-[4-(1-ethyl-2-oxo-4-pyridyl)-1-methyl-6-oxo-3-pyridyl]pyrazol-1-yl]benzonitrile] the value was less than 0.5 µM; for `Cn1cc(-c2cnn(Cc3ccccc3)c2)c(-c2ccc(C#N)cc2)cc1=O` [Example 150, 4-(5-(1-benzyl-1H-pyrazol-4-yl)-1-methyl-2-oxo-1,2-dihydro-pyridin-4-yl)benzonitrile], less than 0.5 µM; for `Cn1cc(-c2cnn(Cc3ccccc3)c2)c(N2CC[C@@H](NS(C)(=O)=O)C2)cc1=O` [Example 174, (R)-N-(1-(5-(1-benzyl-1H-pyrazol-4-yl)-1-methyl-2-oxo-1,2-dihydropyridin-4-yl)pyrrolidin-3-yl)methanesulfonamide], 0.5 to 5 µM. For `CCOc1cc(=O)n(C)cc1-c1cnn(-c2ccccc2C(=O)O)c1` [Example 249, 2-(4-(4-ethoxy-1-methyl-6-oxo-1,6-dihydropyridin-3-yl)-1H-pyrazol-1-yl)benzoic acid] the value was less than 0.5 µM; for `CCOc1cc(=O)n(C)cc1-c1cnn(Cc2ccc(-c3cn[nH]c3)cc2)c1` [Example 103, 4-ethoxy-1-methyl-5-{1-[4-(1H-pyrazol-4-yl)-benzyl]-1H-pyrazol-4-yl}-1H-pyridin-2-one], less than 0.5 µM; for `Cn1cc(-c2cnn(-c3cccc(F)c3C#N)c2)c(-c2ccc(C(F)(F)F)nc2)cc1=O` [Example 368, 2-fluoro-6-(4-(1′-methyl-6′-oxo-6-(trifluoromethyl)-1′,6′-dihydro-[3,4′-bipyridin]-3′-yl)-1H-pyrazol-1-yl)benzonitrile], less than 0.5 µM.

Take `COc1ccc(C(=O)O)c(-n2cc(-c3cn(C)c(=O)cc3-c3ccccc3)cn2)c1` [Example 267, 4-Methoxy-2-[4-(1-methyl-6-oxo-4-phenyl-1,6-dihydro-pyridin-3-yl)-pyrazol-1-yl]-benzoic acid]: the half-maximal inhibitory concentration (IC50) is less than 0.5 µM. The same measure for `CNC(=O)c1ccc(-c2cc(=O)n(C)cc2-c2cnn(-c3ccccc3C#N)c2)cc1` [Example 219, 4-{5-[1-(2-Cyano-phenyl)-1H-pyrazol-4-yl]-1-methyl-2-oxo-1,2-dihydro-pyridin-4-yl}-N-methyl-benzamide]: less than 0.5 µM; for `Cc1cc(=O)n(C)cc1-c1cnn(Cc2ccccc2)c1` [Example 7, 5-(1-benzyl-1H-pyrazol-4-yl)-1,4-dimethyl-pyridin-2(1H)-one]: less than 0.5 µM; for `CCOc1ccc(-c2cc(=O)n(C)cc2-c2cnn(-c3ccccc3C(=O)NC#N)c2)cn1` [Example 296, N-cyano-2-(4-(6-ethoxy-1′-methyl-6′-oxo-1′,6′-dihydro-[3,4′-bipyridin]-3′-yl)-1H-pyrazol-1-yl)benzamide]: less than 0.5 µM. As to `COc1ccc(C#N)c(-n2cc(-c3cn(C)c(=O)cc3-c3ccccc3)cn2)c1` [Example 261, 4-Methoxy-2-[4-(1-methyl-6-oxo-4-phenyl-1,6-dihydro-pyridin-3-yl)-pyrazol-1-yl]-benzonitrile], the IC50 is less than 0.5 µM. On to `Cn1cc(-c2cc(=O)n(C)cc2-c2cnn(-c3ccccc3S(C)(=O)=O)c2)ccc1=O` [Example 287], for which the half-inhibitory concentration (IC50) fell in the range of 0.5 to 5 µM. Turning to `Cc1cc(-c2cc(=O)n(C)cc2-c2cnn(-c3ccccc3C#N)c2)cn(C)c1=O` [Example 239, 2-(4-(1,1′,5-trimethyl-6,6′-dioxo-1,1′,6,6′-tetrahydro-[3,4′-bipyridin]-3′-yl)-1H-pyrazol-1-yl)benzonitrile], the IC50 is less than 0.5 µM. The same measure for `COc1ccc(-c2cc(=O)n(C)cc2-c2cnn(-c3ccccc3C(=O)O)c2)cn1` [Example 228, 2-[4-(6-Methoxy-1′-methyl-6′-oxo-1′,6′-dihydro-[3,4′]bipyridinyl-3′-yl)-pyrazol-1-yl]-benzoic acid]: less than 0.5 µM; for `Cn1ccc(-c2cc(=O)n(C)cc2-c2cnn(-c3cccc(Cl)c3C#N)c2)cc1=O` [Example 276, 2-Chloro-6-[4-(1,1′-dimethyl-6,2′-dioxo-1,6,1,′,2′-tetrahydro-[4,4′]bipyridinyl-3-yl)-pyrazol-1-yl]-benzonitrile]: less than 0.5 µM; for `Cn1cc(-c2cnn(C3CCCCC3)c2)c(-c2ccccc2)cc1=O` [Example 125, 5-(1-cyclohexyl-1H-pyrazol-4-yl)-1-methyl-4-phenylpyridin-2(1H)-one]: less than 0.5 µM. For the molecule `COc1cc(-c2cc(=O)n(C)cc2-c2cnn(-c3cccc(F)c3C#N)c2)ccc1C` [Example 278, 2-fluoro-6-(4-(4-(3-methoxy-4-methylphenyl)-1-methyl-6-oxo-1,6-dihydro-pyridin-3-yl)-1H-pyrazol-1-yl)benzonitrile], the IC50 is less than 0.5 µM. The same measure for `Cn1cc(-c2cnn(-c3cccc(F)c3C#N)c2)c(-c2ccc(NCC3CC3)nc2)cc1=O` [Example 346, 2-(4-{6-[(cyclopropylmethyl)amino]-1′-methyl-6′-oxo-1′,6′-dihydro-[3,4′-bipyridine]-3′-yl}-1H-pyrazol-1-yl)-6-fluorobenzonitrile]: less than 0.5 µM. For `Cc1ccccc1C(C)n1cc(-c2ccc(=O)n(C)c2)cn1` (centres unmarked) [Example 22, 1-methyl-5-(1-(1-(o-tolyl)ethyl)-1H-pyrazol-4-yl)pyridin-2(1H)-one] the value was less than 0.5 µM; for `COc1ccc(C#N)c(-n2cc(-c3cn(C)c(=O)cc3-c3ccc(OC)nc3)cn2)c1` [Example 264, 4-Methoxy-2-[4-(6-methoxy-1′-methyl-6′-oxo-1′,6′-dihydro-[3,4′]bipyridinyl-3′-yl)-pyrazol-1-yl]-benzonitrile], less than 0.5 µM; for `O=c1cc(-c2ccccc2)c(-c2cnn(Cc3ccccc3)c2)cn1C(F)F` [Example 35, 5-(1-benzyl-1H-pyrazol-4-yl)-1-(difluoromethyl)-4-phenyl-pyridin-2(1H)-one], 0.5 to 5 µM. The same measure for `Cc1cccc(-c2cc(=O)n(C)cc2-c2cnn(Cc3ccccc3)c2)c1` [Example 111, 5-(1-benzyl-1H-pyrazol-4-yl)-1-methyl-4-(m-tolyl)-pyridin-2(1H)-one]: less than 0.5 µM.

On to `CC(c1ccccc1)n1cc(-c2cc(Cl)c(=O)n(C)c2)cn1` (centres unmarked) [Example 31, 3-chloro-1-methyl-5-(1-(1-phenylethyl)-1H-pyrazol-4-yl) pyridin-2(1H)-one], for which the IC50 is less than 0.5 µM. The same measure for `CCNc1ccc(-c2cc(=O)n(C)cc2-c2cnn(-c3cccc(F)c3C#N)c2)cn1` [Example 344, 2-(4-(6-(ethylamino)-1′-methyl-6′-oxo-1′,6′-dihydro-[3,4′-bipyridin]-3′-yl)-1H-pyrazol-1-yl)-6-fluorobenzonitrile]: less than 0.5 µM; for `Cn1cc(-c2cnn(Cc3ccccc3)c2)c(OCC(F)(F)F)cc1=O` [Example 91, 5-(1-benzyl-1H-pyrazol-4-yl)-1-methyl-4-(2,2,2-trifluoro-ethoxy)pyridin-2(1H)-one]: less than 0.5 µM; for `CCOc1cc(=O)n(C)cc1-c1cnn(-c2ccccc2C#N)c1` [Example 281, 2-(4-(4-ethoxy-1-methyl-6-oxo-1,6-dihydropyridin-3-yl)-1H-pyrazol-1-yl)benzonitrile]: less than 0.5 µM.

For the molecule `Cc1ccc(-c2cc(=O)n(C)cc2-c2cnn(-c3ccccc3C#N)c2)cn1` [Example 377, 2-(4-(1′,6-dimethyl-6′-oxo-1′,6′-dihydro-[3,4′-bipyridin]-3′-yl)-1H-pyrazol-1-yl)benzonitrile], the IC50 is less than 0.5 µM.

On to `CNc1ccc(-c2cc(=O)n(C)cc2-c2cnn(-c3cccc(Cl)c3C#N)c2)cn1` [Example 341, 2-chloro-6-(4-(1′-methyl-6-(methylamino)-6′-oxo-1′,6′-dihydro-[3,4′-bipyridin]-3′-yl)-1H-pyrazol-1-yl)benzonitrile], for which the concentration for half-maximal inhibition (IC50) is less than 0.5 µM. On to `CCNc1ncc(-c2cc(=O)n(C)cc2-c2cnn(C(C)c3ccccc3)c2)cn1` (centres unmarked) [Example 311], for which the IC50 is less than 0.5 µM.

As for `CC(c1ccccc1)n1cc(-c2cn(C)c(=O)cc2OCc2ccn(C)n2)cn1` (centres unmarked) [Example 44, 1-methyl-4-((1-methyl-1H-pyrazol-3-yl)methoxy)-5-(1-(1-phenyl-ethyl)-1H-pyrazol-4-yl) pyridin-2(1H)-one], the IC50 is less than 0.5 µM. With “N-{2-[5-(1-benzyl-1H-pyrazol-4- yl)-1-methyl-2-oxo-1,2-dihydro- pyridin-4-yl]-cyclo- pentyl}-acetamide [Example 88]”, the IC50 was less than 0.5 µM.
